Earlier results, collected in patent publication US7388019B2, “3-amino-4-phenylbutanoic acid derivatives as dipeptidyl peptidase inhibitors for the treatment or prevention of diabetes” (Merck & Co., Inc., priority 2003, dated 2008).

Columns and labels:
[1] = rats
[2] = mouse, cyclophosphamide-induced neutropenia
DP-IV = biological target: T1, DP-IV (Homo sapiens, UniProt P27487); details: plasma
T1 construct: GRF is rapidly degraded in plasma to GRF[3-44]; from tissue
T1 sequence (P27487 39-766 limits assumed): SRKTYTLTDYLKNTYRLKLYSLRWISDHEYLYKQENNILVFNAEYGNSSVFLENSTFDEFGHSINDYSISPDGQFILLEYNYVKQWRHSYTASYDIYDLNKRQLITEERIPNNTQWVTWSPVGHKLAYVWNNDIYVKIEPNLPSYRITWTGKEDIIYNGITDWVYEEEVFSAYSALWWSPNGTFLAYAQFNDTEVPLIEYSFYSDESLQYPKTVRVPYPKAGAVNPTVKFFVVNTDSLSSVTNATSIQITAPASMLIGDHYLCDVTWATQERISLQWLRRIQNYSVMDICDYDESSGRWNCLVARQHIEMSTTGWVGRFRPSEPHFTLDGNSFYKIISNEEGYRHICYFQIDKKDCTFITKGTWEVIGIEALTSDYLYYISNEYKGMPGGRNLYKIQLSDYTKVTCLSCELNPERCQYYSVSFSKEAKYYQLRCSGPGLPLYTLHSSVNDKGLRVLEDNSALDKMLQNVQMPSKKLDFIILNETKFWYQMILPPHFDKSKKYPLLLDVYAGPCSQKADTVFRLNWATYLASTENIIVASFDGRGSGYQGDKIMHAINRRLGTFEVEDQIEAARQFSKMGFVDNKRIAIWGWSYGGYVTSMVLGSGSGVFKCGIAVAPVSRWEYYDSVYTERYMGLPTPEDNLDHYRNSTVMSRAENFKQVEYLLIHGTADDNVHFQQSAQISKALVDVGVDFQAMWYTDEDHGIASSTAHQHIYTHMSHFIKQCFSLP

**Q.** Which cardiac allograft survival [1] does the source give for `CC(C)N1CCC(c2ccccc2)(c2ccccc2)CC1` [Prodipine, Pro-Pro-diphenyl-phosphonate] here?
**A.** double cardiac allograft survival in rats from day 7 to day 14

**Q.** With `CC(C)[C@H](N)C(=O)N1CCC[C@H]1B(O)O` [Val-Boro-Pro] as the compound, how does the hematopoiesis [2] read?
**A.** stimulated hematopoiesis

**Q.** Which “degradation of GRF to GRF[3-44]” value (DP-IV) does the source give for diprotin A here?
**A.** prevented
